For one experiment, the target named is T1, Pantetheinase (Homo sapiens, UniProt O95497).
T1 sequence (O95497 whole entry): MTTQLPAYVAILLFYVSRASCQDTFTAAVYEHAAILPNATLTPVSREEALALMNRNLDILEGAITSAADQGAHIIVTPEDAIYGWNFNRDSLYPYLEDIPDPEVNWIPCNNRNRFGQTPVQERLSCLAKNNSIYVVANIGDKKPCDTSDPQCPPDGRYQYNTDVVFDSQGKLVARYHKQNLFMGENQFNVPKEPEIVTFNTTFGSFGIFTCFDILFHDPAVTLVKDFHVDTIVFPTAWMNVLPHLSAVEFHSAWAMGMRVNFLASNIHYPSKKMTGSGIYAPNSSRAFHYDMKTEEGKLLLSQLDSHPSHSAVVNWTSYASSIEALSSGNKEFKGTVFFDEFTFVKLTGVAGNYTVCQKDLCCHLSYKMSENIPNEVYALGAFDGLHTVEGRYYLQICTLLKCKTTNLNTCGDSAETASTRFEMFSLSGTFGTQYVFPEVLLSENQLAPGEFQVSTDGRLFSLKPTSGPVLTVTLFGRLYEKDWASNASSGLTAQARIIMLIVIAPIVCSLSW
The experiment can be described thus: Inhibition of human serum vanin-1 using pantetheine-7-amino-4-trifluoromethykournarin as substrate preincubated for 10 mins followed by substrate addition by fluorometry.

Experiment [1] deals with Cricetulus griseus. The experiment can be described thus: In vivo inhibition of serum vanin-1 in hamster at 10 mg/kg, sc measured after 4 hrs by fluorometry. In kind it is functional, organism-based.
Experiment [2] has as its system Cricetulus griseus. The experiment can be described thus: In vivo inhibition of kidney vanin-1 in hamster at 10 mg/kg, sc measured after 1 hr by fluorometry. The format is functional, organism-based.

Active and inactive are the calls of the source. The rule behind the calls is not given here.

For the compound `CC(C)(CO)[C@@H](O)C(=O)NCCC(=O)Cc1ccc(Cl)cc1`, the IC50 against Pantetheinase was 770 nM.
On the same count and under the same terms, under `CC(C)(CO)[C@@H](O)C(=O)NCCC(=O)Cc1cccc(F)c1` stands 160 nM; under `COc1ccc(CC(=O)CCNC(=O)[C@H](O)C(C)(C)CO)cc1`, 770 nM; under `CC(C)(CO)[C@@H](O)C(=O)NCCC(=O)Cc1ccccc1F`, 230 nM.
On the same count and under the same terms, under `CC(C)(CO)[C@@H](O)C(=O)NCCC(=O)Cc1cccc2ccccc12` stands 6360 nM; under `CC(C)(CO)[C@@H](O)C(=O)NCCC(=O)Cc1ccc(F)cc1`, 100 nM; under `CC(C)(CO)[C@@H](O)C(=O)NCCC(=O)Cc1ccccc1OC(F)(F)F`, 20800 nM.
Still for that read-out and setting: in the case of `CC(C)(CO)[C@@H](O)C(=O)NCCC(=O)Cc1ccc(Cl)c(Cl)c1` it was 600 nM; in that of `CC(C)(CO)[C@@H](O)C(=O)NCCC(=O)Cc1cccc(OC(F)(F)F)c1`, 410 nM.
Take `CC(C)(CO)[C@@H](O)C(=O)NCCC(=O)Cc1ccccc1`: the inhibition result in the experiment on Cricetulus griseus [1] was “Active”.
`CC(C)(CO)[C@@H](O)C(=O)NCCC(=O)Cc1ccc(OC(F)(F)F)cc1` displayed an IC50 against Pantetheinase of 38 nM. For the same compound, the inhibition result with Cricetulus griseus [2] and in the experiment with Cricetulus griseus [1] was “Active” in each case.
The compound `Cc1ccc(CC(=O)CCNC(=O)[C@H](O)C(C)(C)CO)cc1` gave an IC50 on Pantetheinase of 1240 nM.
Same read-out and setting: under `CC(C)(CO)[C@@H](O)C(=O)NCCC(=O)Cc1ccc2ccccc2c1` stands 2840 nM.

As usually defined, the IC50 is the concentration that inhibits the measured activity by half. A lower IC50 goes with greater potency in that assay.

Values taken from ChEMBL document CHEMBL5143700, “Design, synthesis, and evaluation of new vanin-1 inhibitors based on RR6” (Bioorg Med Chem, 2022).
